The record followed here is PMC7617285, “Dehydrogenase versus oxidase function: the interplay between substrate binding and flavin microenvironment” (ACS catalysis, 2025).

The target of assay [1] is T1, nsVAO (vanillyl-alcohol oxidase from Novosphingobium sp.) (Novosphingobium sp., UniProt A0A3N9RU39).
T1 construct: gene EH199_11270; SUMO tag cleaved for crystals; non-covalent FAD
T1 sequence (A0A3N9RU39 1-543): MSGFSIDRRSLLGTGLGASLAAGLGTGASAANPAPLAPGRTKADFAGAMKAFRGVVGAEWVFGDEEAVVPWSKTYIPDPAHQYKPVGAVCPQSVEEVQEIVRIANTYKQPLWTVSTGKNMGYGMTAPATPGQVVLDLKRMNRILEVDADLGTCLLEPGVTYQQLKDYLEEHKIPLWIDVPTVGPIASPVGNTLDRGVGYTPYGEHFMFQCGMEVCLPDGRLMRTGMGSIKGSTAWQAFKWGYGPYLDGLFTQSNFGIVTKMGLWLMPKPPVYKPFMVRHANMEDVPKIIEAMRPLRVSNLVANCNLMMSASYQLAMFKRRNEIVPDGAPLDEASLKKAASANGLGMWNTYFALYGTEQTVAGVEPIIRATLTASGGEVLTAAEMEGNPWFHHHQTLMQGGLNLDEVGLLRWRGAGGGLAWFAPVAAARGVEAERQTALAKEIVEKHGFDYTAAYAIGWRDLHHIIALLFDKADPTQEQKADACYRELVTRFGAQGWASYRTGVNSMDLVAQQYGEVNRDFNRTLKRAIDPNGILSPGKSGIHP
Nature of the assay: X-ray structure. Type of assay: binding. To be noted: non-covalently bound FAD.

The target in assay [2] is T2, VAD (vanillyl-alcohol dehydrogenase from Marinicaulis flavus) (Hyphococcus luteus, UniProt A0A2S7K3M2).
T2 construct: gene CW354_13745; SUMO tag cleaved for crystals; covalent FAD on H387; dimer
T2 sequence (A0A2S7K3M2 1-521): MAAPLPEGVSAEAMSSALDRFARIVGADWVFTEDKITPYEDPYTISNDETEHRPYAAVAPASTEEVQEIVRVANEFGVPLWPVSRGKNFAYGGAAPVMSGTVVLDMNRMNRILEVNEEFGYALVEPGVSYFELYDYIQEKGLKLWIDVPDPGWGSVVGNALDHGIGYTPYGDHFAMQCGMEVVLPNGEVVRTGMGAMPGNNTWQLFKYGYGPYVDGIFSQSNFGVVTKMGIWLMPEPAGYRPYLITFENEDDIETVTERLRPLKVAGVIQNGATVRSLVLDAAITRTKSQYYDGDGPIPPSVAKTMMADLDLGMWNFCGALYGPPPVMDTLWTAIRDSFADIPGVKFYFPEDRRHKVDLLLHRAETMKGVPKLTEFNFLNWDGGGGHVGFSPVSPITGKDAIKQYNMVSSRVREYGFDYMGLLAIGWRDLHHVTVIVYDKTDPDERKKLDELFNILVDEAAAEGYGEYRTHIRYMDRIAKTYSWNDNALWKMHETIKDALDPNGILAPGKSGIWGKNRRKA
Nature of the assay: X-ray structure. To be noted: covalent (H387). The class given is binding.

Assay [3] concerns the target T3, VAD (vanillyl-alcohol dehydrogenase from Marinicaulis flavus) (Hyphococcus luteus, UniProt A0A2S7K3M2, P151L).
T3 construct: gene CW354_13745; SUMO tag cleaved for crystals; covalent FAD on H387; dimer
Nature of the assay: X-ray structure of soaked crystal. The class given is binding. To be noted: 1 mM eugenol soak, 2 min; active site, flavin si side.

Assay [4] deals with T3, VAD (vanillyl-alcohol dehydrogenase from Marinicaulis flavus). Nature of the assay: anaerobic stopped-flow reductive half-reaction. The class given is biochemical. To be noted: 25 °C, 50 mM potassium phosphate pH 7.5, 150 mM NaCl, oxidized enzyme. The text has this:
(§1) anaerobic stopped-flow reductive half-reaction on VAD (vanillyl-alcohol dehydrogenase from Marinicaulis flavus)

The target of assay [5] is T2, VAD (vanillyl-alcohol dehydrogenase from Marinicaulis flavus). Nature of the assay: anaerobic stopped-flow reductive half-reaction. The class given is biochemical. To be noted: 25 °C, 50 mM potassium phosphate pH 7.5, 150 mM NaCl, oxidized enzyme.
Excerpt: as §1

For assay [6], the target named is T1, nsVAO (vanillyl-alcohol oxidase from Novosphingobium sp.). The assay can be described thus: X-ray structure of soaked crystal. Type of assay: binding. To be noted: […] vanillyl alcohol soak, […] min; active site.

T3 sequence (A0A2S7K3M2 entry or part of it P151L): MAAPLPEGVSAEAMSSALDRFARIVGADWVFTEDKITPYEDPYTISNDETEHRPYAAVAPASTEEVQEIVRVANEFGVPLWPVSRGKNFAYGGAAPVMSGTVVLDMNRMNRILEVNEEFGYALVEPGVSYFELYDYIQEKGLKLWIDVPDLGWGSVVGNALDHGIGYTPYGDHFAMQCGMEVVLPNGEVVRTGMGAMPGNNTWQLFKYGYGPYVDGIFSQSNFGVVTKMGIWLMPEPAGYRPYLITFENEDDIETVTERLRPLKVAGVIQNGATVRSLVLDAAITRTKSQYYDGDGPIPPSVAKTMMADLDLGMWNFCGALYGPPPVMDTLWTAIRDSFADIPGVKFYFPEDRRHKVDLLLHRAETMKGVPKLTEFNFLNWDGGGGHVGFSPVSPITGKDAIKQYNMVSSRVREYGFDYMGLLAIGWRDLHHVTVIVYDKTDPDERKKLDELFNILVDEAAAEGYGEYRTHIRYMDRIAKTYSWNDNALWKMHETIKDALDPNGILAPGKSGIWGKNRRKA

Consider `Cc1cc2nc3c(=O)[nH]c(=O)nc-3n(C[C@H](O)[C@H](O)[C@H](O)COP(=O)(O)OP(=O)(O)OC[C@H]3O[C@@H](n4cnc5c(N)ncnc54)[C@H](O)[C@@H]3O)c2cc1C` [FAD], for which the X-ray structure entry in assay [1] is “Its crystal structure confirms that FAD is non-covalently bound”; in assay [2], “FAD carbons are in yellow, wild-type carbons in orange”.

Regarding `C=CCc1ccc(O)c(OC)c1` [Eugenol], the “X-ray structure of soaked crystal” value in assay [3] was “P151L VAD-eugenol, wild type nsVAO-vanillyl alcohol and T181D nsVAO-vanillin complexes were prepared by soaking crystals”.

A word on the Kd: it is a measure of binding affinity in units of concentration. For the molecule `COc1cc(CO)ccc1O` [Vanillyl alcohol], the Kd is 1060 ± 80 µM in assay [4] and 24.2 ± 3.3 µM in assay [5]. Further, the “X-ray structure of soaked crystal” value in assay [6] is given as “Vanillyl alcohol bound to wild type nsVAO is shown with blue carbons”.
